These results are taken from patent EP0465913B1, “Diaminotrifluoromethylpyrimidine derivatives, process for their production and phospholipase A2 inhibitor containing them” (ISHIHARA SANGYO KAISHA, LTD., priority 1990, dated 1992).

T1 sequence (P00592 23-146): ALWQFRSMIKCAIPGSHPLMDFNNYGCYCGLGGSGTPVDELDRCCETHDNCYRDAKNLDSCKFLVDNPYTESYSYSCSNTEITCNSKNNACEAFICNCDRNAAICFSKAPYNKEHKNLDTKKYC

The first assay has as its target T1, Porcine pancreatic phospholipase A2 (Sus scrofa, UniProt P00592).
T1 construct: purchased Boehringer Mannheim·Yamanouchi K.K. 161454·122416
Briefly: Phospholipase A2 inhibitory activity, method B (L-α-dipalmitoylphosphatidylcholine substrate). The assay is classed as biochemical. Conditions: 37°C for 30 minutes. How it is done: To a solution prepared by dissolving 9.2 mg of L-α-dipalmitoylphosphatidylcholine (manufactured by Nichiyu Liposome K.K.) in 0.5 ml of chloroform, a solution prepared by dissolving 32 mg of sodium cholate (manufactured by Wako Pure Chemical Industries, Ltd.) in 0.5 ml of methanol, was added, followed by mixing. The solvent of the mixture was removed under a nitrogen stream, and then 2.5 ml of a 250 mM sodium chloride solution [prepared by dissolving sodium chloride in a 100 mM Tris-HCl buffer solution {tris(hydroxymethyl)aminomethane (manufactured by Nacalai Tesque K.K.) was adjusted to pH8.0 with hydrochloric acid}] was added thereto, and the mixture was dissolved under stirring to obtain a substrate.
Porcine pancreatic phospholipase A2 [(161454·122416) manufactured by Boehringer Mannheim·Yamanouchi K.K.] was used.
To a 96 well microtitration plate, 20 µl of a solution containing calcium chloride, bovine serum alubmin (manufactured by Sigma Chemical, Co.) and a Tris-HCl buffer solution (pH8.0) at concentrations of 25 mM, 4.5 mg/ml and 100 mM, respectively, 5 µl of a solution prepared by dissolving 10 mg of a test compound in 500 µl of diemthylsulfoxide, followed by an addition of 500 µl of a 200 mM Tris-HCl buffer solution, 5 µl of an enzyme solution (10 µg/ml) [prepared by dissolving the enzyme in a bovine serum alubmin solution (prepared by dissolving bovine serum alubmin in a 100 mM Tris-HCl buffer solution at a concentration of 1 mg/ml)] and 20 µl of the substrate, were added and reacted at 37°C for 30 minutes. After termination of the reaction, the released free fatty acid was quantitatively analyzed in accordance with the ACS-ACOD (acyl CoA synthetase-acyl CoA oxidase) method [a kit of NEFA C test wako (manufactured by Wako Pure Chemical Industries, Ltd.) was used]. The quantitative analysis was made by means of Microplate ELISA Reader (Model 2550EIA Reader, manufactured by Bio-Rad Laboratories) at a wavelength of 540 nm. Separately, such experiments as mentioned above, were carried out at various concentrations (1 µg/ml, 0.75 µg/ml, 0.5 µg/ml and 0.25 µg/ml) of phospholipase A2 without a test compound. Then, the concentration of the free fatty acid versus the concentration of phospholipase A2 was plotted.
From this standard curve, the apparent concentration of phospholipase A2 in the case with a test compound, was read. Then, the percent inhibition of the enzyme was calculated by the following formula. Percent inhibition (%) = (l -(A)/(B)) x 100 [formula] • A: Apparent enzyme concentration when a test compound is added. • B: True enzyme concentration when a test compound is added.
As for `CS(=O)(=O)Nc1ncc(C(F)(F)F)cc1NC(=O)C(F)(F)C(F)(F)F` [compound 260], the “% inhibition of PLA2 (1,000 ppm)” value is 53%.

The same assay, now with this note: 1,000 ppm, 37°C for 30 minutes, read-out: % inhibition of PLA2 (1,000 ppm).
Take `CS(=O)(=O)Nc1ncc(C(F)(F)F)cc1NC(=O)CC1CCCC1` [compound 62]: the inhibition at 1000 ppm is 53%. Turning to `CC(C)=CC(=O)Nc1cc(C(F)(F)F)cnc1NS(C)(=O)=O` [compound 70], the inhibition at 1000 ppm was 40%. On the same count and under the same terms, as for `CS(=O)(=O)Nc1ncc(C(F)(F)F)cc1NC(=O)C=Cc1ccccc1` [compound 71], the figure is 77%; as for `CS(=O)(=O)Nc1ncc(C(F)(F)F)cc1NC(=O)C#Cc1ccccc1` [compound 75], 81%; as for `CS(=O)(=O)Nc1ncc(C(F)(F)F)cc1NC(=O)c1ccc(F)cc1F` [compound 76], 61%. In the case of `CS(=O)(=O)Nc1ncc(C(F)(F)F)cc1NC(=O)c1ccsc1` [compound 84], the inhibition at 1000 ppm came out at 56%.

On to `CS(=O)(=O)Nc1ncc(C(F)(F)F)cc1NC(=O)c1cc2c(s1)CCC2` [compound 88], for which the inhibition at 1000 ppm came to 83%. Still for that read-out and setting: as for `CC(Cl)(Cl)C(=O)Nc1cc(C(F)(F)F)cnc1NS(C)(=O)=O` [compound 89], the figure is 51%; as for `CS(=O)(=O)Nc1ncc(C(F)(F)F)cc1NC(=O)C(=O)c1ccccc1` [compound 90], 79%; as for `O=C(Nc1cc(C(F)(F)F)cnc1NS(=O)(=O)C(F)(F)F)c1cccs1` [compound 92], 75%. Still for that read-out and setting: the figure for `CCS(=O)(=O)Nc1ncc(C(F)(F)F)cc1NC(=O)C1CC=CCC1` (centres unmarked) [compound 95] is 85%; for `CCS(=O)(=O)Nc1ncc(C(F)(F)F)cc1NC(=O)c1cccc(C(F)(F)F)c1` [compound 99] it is 86%; for `CCS(=O)(=O)Nc1ncc(C(F)(F)F)cc1NC(=O)c1ccc(C(F)(F)F)cc1` [compound 100] it is 83%. In the case of `CC(C)S(=O)(=O)Nc1ncc(C(F)(F)F)cc1NC(=O)C1CCCCC1` [compound 103], the inhibition at 1000 ppm amounted to 86%. Consider `CCCCS(=O)(=O)Nc1ncc(C(F)(F)F)cc1NC(=O)C(F)(F)Cl` [compound 108], for which the inhibition at 1000 ppm was 61%. Same read-out and setting: as for `COc1ccc(S(=O)(=O)Nc2ncc(C(F)(F)F)cc2NC(=O)c2cccs2)cc1` [compound 109], the figure is 67%; as for `CN(C)S(=O)(=O)Nc1ncc(C(F)(F)F)cc1NC(=O)C1CCCC1` [compound 111], 41%. On the same count and under the same terms, as for `CN(C)S(=O)(=O)Nc1ncc(C(F)(F)F)cc1NC(=O)C(F)(F)C(F)(F)F` [compound 112], the figure is 79%. Still for that read-out and setting: the figure for `COS(=O)(=O)Nc1ncc(C(F)(F)F)cc1NC(=O)C1CCCCC1` [compound 115] is 52%.

In the case of `COS(=O)(=O)Nc1ncc(C(F)(F)F)cc1NC(=O)c1ccc2c(c1)CCC2` [compound 116], the inhibition at 1000 ppm stood at 69%. Still for that read-out and setting: as for `CCOS(=O)(=O)Nc1ncc(C(F)(F)F)cc1NC(=O)c1ccc2c(c1)CCC2` [compound 118], the figure is 84%; as for `O=C(Nc1cc(C(F)(F)F)cnc1NS(=O)(=O)c1cccs1)C1CCCCC1` [compound 126], 84%; as for `O=C(Nc1cc(C(F)(F)F)cnc1NS(=O)(=O)c1cccs1)c1ccc2c(c1)CCC2` [compound 127], 89%.

A further assay deals with experimental acute pancreatitis model. In words: Effects against acute pancreatitis (Test Example 8, closed duodenal loop method, lesion scores). The following applies: Rattus norvegicus; 10 mg/kg single intravenous injection, sodium salt, 6 hours after ventrotomy; read-out: Inhibition rate of hemorrhagic lesions (%). The assay is classed as in vivo, Crj-CD male rats. How it is done:
Using Crj-CD male rats, each test group consisted of 3 rats. An experimental acute pancreatitis model was prepared by a closed duodenal loop method under anethesia with halothane (manufactured by Hoechst Japan) and nitrous oxide (manufactured by Sumitomo Seika K.K.) applied by a general inhalation anesthesia machine (Model EM2 and halothane evaporator F-Model). Each compound (subjected to the test in the form of a sodium salt) was continuously intravenously injected into the tail vein in an amount of 0.4 ml/100 g to 0.6 ml/100 g at a rate of 0.05 ml per minute by a pump (Technicon AA II Proportioning Pump III, manufactured by Technicon Instruments Corporation) or rapidly intravenously injected. No injection was made to a control group. Gross pathological examination was conducted upon expiration of 6 hours after the ventrotomy in the case of the group to which the compound was administered. With respect to each of four lesions among pancreatic lesions i.e. petechia, ecchymosis, pancreatic necrosis and abdominal fatty necrosis, the grade and the distribution of lesions were scored with five grades of 0, 0.5, 1, 2 and 3 (severe lesions are 3). The sum of all lesions was designated as scores of pancreatitis lesions, and the sum of the score of petechia and the score of ecchymosis only was designated as scores of hemorrhagic lesions. The pancreatitis inhibition rate (%) and the hemorrhage inhibition rate (%) were obtained by the following formulas, and the results are shown in Table 13. Pancreatitis inhibition rate (%) = (l -(H)/(G)) x 100 [formula] • H: Scores of pancreatitis lesions of the group to which a test compound was administered. • G: Scores of pancreatitis lesions of the control group. Hemorrhage inhibition rate (%) = (l -(J)/(I)) x 100 [formula] • J: Scores of hemorrhagic lesions of the group to which a test compound was administered. • I: Scores of hemorrhagic lesions of the control group.
As for `CS(=O)(=O)Nc1ncc(C(F)(F)F)cc1NC(=O)c1ccc2c(c1)OCC(F)(F)O2` [Compound No. 35], the inhibition in vivo at 10 mg/kg came out at 35%. The same measure, in the same setting: the figure for `CS(=O)(=O)Nc1ncc(C(F)(F)F)cc1NC(=O)c1ccc2c(c1)OCCO2` [compound 34] is 30%. On the same count and under the same terms, the figure for `CS(=O)(=O)Nc1ncc(C(F)(F)F)cc1NC(=O)CC1CCCC1` [compound 62] is 45%. With `CCCCS(=O)(=O)Nc1ncc(C(F)(F)F)cc1NC(=O)C1CC1` [compound 107], the inhibition in vivo at 10 mg/kg was determined as 63%.

Staying with this assay, now noted: Rattus norvegicus; 10 mg/kg single intravenous injection, sodium salt, 6 hours after ventrotomy; read-out: Inhibition rate of pancreatitis lesions (%).
Consider `CS(=O)(=O)Nc1ncc(C(F)(F)F)cc1NC(=O)c1ccc2c(c1)OCC(F)(F)O2` [Compound No. 35], for which the inhibition in vivo at 10 mg/kg worked out at 35%.

For `CS(=O)(=O)Nc1ncc(C(F)(F)F)cc1NC(=O)c1ccc2c(c1)OCCO2` [compound 34], the inhibition in vivo at 10 mg/kg amounted to 30%. Still for that read-out and setting: the figure for `CS(=O)(=O)Nc1ncc(C(F)(F)F)cc1NC(=O)CC1CCCC1` [compound 62] is 61%; for `CCCCS(=O)(=O)Nc1ncc(C(F)(F)F)cc1NC(=O)C1CC1` [compound 107] it is 61%.

Usually inhibition stands for the relative decrease from the control value, in per cent.
